Measured values as given in patent US4120947A, “Xanthine compounds and method of treating bronchospastic and allergic diseases” (priority 1976, dated 1978).
“Also recorded” adds a separate entry of the source. Read-outs that look alike come from different tables or passages of the source.

What was measured:
[1] = system: antigen-induced bronchconstriction in rats sensitized with N. brasliensis; experiment: AA: antiallergy (anti-anaphylactic) activity against antigen-induced bronchoconstriction in sensitized rats
Description: The animals are subdivided into control and test groups. Test animals receive a drug either orally, intraperitoneally or intravenously and are challenged with intravenous antigen at fixed time intervals after dosing. Antigen-induced increases in tracheal pressure are monitored and reflect the extent of bronchoconstriction.

[2] = system: guinea pig tracheal chain preparation; experiment: SP: spasmolytic activity in vitro, guinea pig tracheal chain preparation; conditions: Cavia porcellus, read-out: SP in vitro C, molar concentration required to produce maximum relaxation
Text: SP Spasmolytic activity evaluated in vitro using guinea pig tracheal chain preparation, and expressed as the molar (M) concentration required to produce maximum relaxation. The method used in that of Castillo and de Beer, J. Pharmac. Expt. Therap. 90, 104, 1947.

[3] = system: passive cutaneous anaphylaxis in the rat; experiment: PCA: passive cutaneous anaphylaxis in the rat; assay type: in vivo; conditions: for antiallergy activity, in words: rat passive cutaneous anaphylaxis
Description: PCA Antianaphylactic activity against passive cutaneous anaphylaxis in the rat, expressed as % protection against antigen-induced wheal formation.
The method used is that of Ogilvie, B. M., Immunology 12, 113-131 (1967). Reaginic […] antibodies develope in the rat following subcutaneous injection of Nippostrongylus brasiliensis larvae. Antisera, collected 28 days later are injected subcutaneously into new rats.

[4] = system: histamine-induced bronchoconstriction in the dog; experiment: CP: cardiopulmonary activity against histamine-induced bronchoconstriction in the dog; assay type: in vivo; conditions: histamine challenge
Text: Pretreatment with bronchodilator drugs aims to block the bronchospastic response to histamine. Each dog serves as its own control.

[5] = system: mouse; experiment: LD50 mouse; assay type: in vivo
Description: (§1) The LD50 was determined in three species, the mouse (male, 18-25 g), the albino rat (female, 150-200 g) and the albino guinea pig (male 180-280 g) by oral administration and in the albino rat by intraperitoneal administration. The animals are fasted overnight prior to testing. Six groups of ten animals are used; five groups are dosed with the test substance, the sixth group serves as a control and receives the drug vehicle at the highest test concentration. The compounds were administered in a 0.5% gum tragacanth solution in distilled water using a constant logarithmic increment in dose. Dose volume ranged from […].
(§2) The animals were housed five per cage (rat and guinea pig) or ten per cage (mouse) with free access to food and water. The number of dead animals was recorded daily for five consecutive days. The total mortality per group of ten for each dose level was recorded and LD50 with Confidence Limits calculated according to the method described by Weil, C.

[6] = LD50 mouse; assay type: in vivo; conditions: in vivo, po
Description: as §1, §2

[7] = system: histamine-induced bronchoconstriction in the guinea pig; experiment: BD: bronchodilator activity against histamine-induced bronchoconstriction in the guinea pig; conditions: for inhibition in vivo at 10 mg/kg / inhibition in vivo at 20 mg/kg: Cavia porcellus, po, read-out: BD (guinea pig), % protection
Text: BD Bronchodilator activity evaluated against histamine-induced bronchoconstriction in the guinea pig, and expressed as % protection at the stated time interval (in minutes and hours) post-drug against histamine agonist. Doses are expressed in milligrams per kilogram of body weight (mpk) per os (po) or intraperitoneally (ip).
A modification of the method of Siegmund. O.H., et al., J. Pharmacol. and Exp. Therap. 90:254-9, 1947, is used. Healthy guinea pigs weighing from 250 to 300 grams are placed four at a time and separated by wiring screening in an 11 liter plastic chamber, at the time of peak activity following drug administration. The challenge consists of histamine diphosphate (1% solution) aerosolized in a de Vilbiss -40 nebulizer at 200 mm Hg. Times for prostration are recorded.
Per cent protection is calculated as follows: [formula] wherein the times are measured in seconds.
In interpreting the BD data it should be noted that a dose giving less than 40-50% protection is not considered useful. Differences in percent protection of less than 10% are probably not significant.

[8] = in vivo
Description: as §1, §2

[9] = system: albino rat; experiment: in vivo
Description: as §1, §2

[10] = Rattus norvegicus, ip, 1 h, read-out: AA (rat), % protection
[11] = Rattus norvegicus, po, 1 h, read-out: AA (rat), % protection
[12] = guinea pig, comparison with corresponding compound

CCC(C)Cn1c(=O)n(C)c(=O)c2c1nc(C)n2C(=O)OC (stereo not drawn) [Compound 4387, 1,8-dimethyl-3-(2-methyl-1-butyl)-7-carbomethoxyxanthine]
inhibition in vivo at 5 mg/kg [1, 10]: 55% | inhibition in vivo at 75 mg/kg [1, 10]: 70% | inhibition in vivo at 2.5 mg/kg [1, 11]: 72% | inhibition in vivo at 5 mg/kg [1, 11]: 68% | inhibition in vivo at 10 mg/kg [1, 11]: 57% | antiallergy effectiveness, in words ([1]; rat, comparison with 4390): about as effective as the corresponding 3-isobutyl compound (4390) | EC (maximum relaxation) [2]: 1000 µM | Wheal Diameter, % Δ ([3]; 10 mg/kg po): 41% | Wheal Diameter, Response (Mean ± S.E.M.) ([3]; 10 mg/kg po): 1.41 ± 0.17 cm | Wheal Intensity, % Δ ([3]; 10 mg/kg po): 33% | Wheal Intensity, Response (Mean ± S.E.M.) ([3]; 10 mg/kg po): 1.65 ± 0.20 | Wheal Diameter, % Δ ([3]; 20 mg/kg po): 57% | Wheal Diameter, Response (Mean ± S.E.M.) ([3]; 20 mg/kg po): 0.81 ± 0.13 cm | Wheal Intensity, % Δ ([3]; 20 mg/kg po): 38% | Wheal Intensity, Response (Mean ± S.E.M.) ([3]; 20 mg/kg po): 1.18 ± 0.21 | antiallergy activity, in words [3]: effective antiallergy agents | cardiopulmonary / bronchodilator activity in the dog, in words [4]: significantly reduce the decrease in pulmonary compliance and increase in pulmonary resistance due to histamine administration; also recorded: about as effective as the corresponding 3-isobutyl compound (4390) | lethality relative to 4390 [5]: about one-half | LD50 [6]: 54.9 mg/kg | inhibition in vivo at 10 mg/kg ([7]; 0.5 h): 44% | inhibition in vivo at 10 mg/kg ([7]; 1 h): 87% | inhibition in vivo at 20 mg/kg ([7]; 1 h): 94% | inhibition in vivo at 10 mg/kg ([7]; 6 h): 59% | inhibition in vivo at 20 mg/kg ([7]; 6 h): 92% | inhibition in vivo at 10 mg/kg ([7]; 10 h): 37% | bronchodilator effectiveness, in words [7, 12]: shows greater activity; also recorded: about as effective as the corresponding 3-isobutyl compound (4390) | onset and duration of action, in words [7, 12]: effective at lower doses and for longer duration | LD50 ([8]; guinea pig, po): 27.4 mg/kg | LD50 ([8]; in vivo, rat, ip): 18.3 mg/kg | LD50 ([8]; in vivo, rat, po): 60 mg/kg | lethality relative to 4390 [9]: about one-half

COC(=O)n1c(C)nc2c1c(=O)n(C)c(=O)n2CC(C)C [Compound 4390, 1,8-dimethyl-3-isobutylxanthine-7-carboxylic acid, methyl ester]
inhibition in vivo at 2 mg/kg [1, 10]: 60% | inhibition in vivo at 4 mg/kg [1, 10]: 52% | inhibition in vivo at 2.5 mg/kg [1, 11]: 77% | EC (maximum relaxation) [2]: 1000 µM | Wheal Diameter, % Δ ([3]; 20 mg/kg po): 60% | Wheal Diameter, Response (Mean ± S.E.M.) ([3]; 20 mg/kg po): 0.74 ± 0.21 cm | Wheal Intensity, % Δ ([3]; 20 mg/kg po): 53% | Wheal Intensity, Response (Mean ± S.E.M.) ([3]; 20 mg/kg po): 1.10 ± 0.23 | antiallergy activity, in words [3]: effective antiallergy agents | cardiopulmonary / bronchodilator activity in the dog, in words [4]: significantly reduce the decrease in pulmonary compliance and increase in pulmonary resistance due to histamine administration | LD50 [6]: 27.6 mg/kg | inhibition in vivo at 10 mg/kg ([7]; 0.5 h): 49% | inhibition in vivo at 10 mg/kg ([7]; 1 h): 86% | inhibition in vivo at 10 mg/kg ([7]; 6 h): 79% | inhibition in vivo at 10 mg/kg ([7]; 10 h): 48% | lethal ([7]; guinea pig, 20 mpK po): 1/2 | onset and duration of action, in words [7, 12]: effective at lower doses and for longer duration | LD50 ([8]; guinea pig, po): 25.2 mg/kg | LD50 ([8]; in vivo, rat, ip): 9.1 mg/kg | LD50 ([8]; in vivo, rat, po): 33.5 mg/kg
